From US9611258B2, “Dual MEK/PI3K inhibitors and therapeutic methods using the same” (THE REGENTS OF THE UNIVERSITY OF MICHIGAN, priority 2013, dated 2017)
One block for each molecule: values may come before it.

Key:
PI3K = PI3K lipid kinase activity, Adapta TR-FRET assay with purified enzyme; format: biochemical; settings: for IC50: read-out: PI3K inhibition IC50
Description: (§1) Quantitation of PI3K lipid kinase activity of a present compound is determined with purified enzyme using the fluorescence-based Adapta™ TR-FRET assay from InVitrogen (Wisconsin, USA). Quantitation of MEK1 kinase activity of a present compound is determined with purified enzyme using the LanthaScreen® displacement binding assay (Tracer 236) from InVitrogen (Wisconsin, USA). Cellular screening is carried in cultured Panc-1 cells treated for 1 hour with varied doses of the test compound. Effects on pERK and pAKT expression are evaluated by immunoblotting using phospho-specific antibodies (pAKT [Ser473] and pERK1/2 [Thr202/Tyr204]) from Cell Signaling Technology.
(§2) In Vitro Biochemical and Cell-Based Assays. Detection of PI3K lipid kinase activity was conducted with purified enzyme using the fluorescence-based Adapta™ TR-FRET assay from Invitrogen (Wisconsin, USA). Detection of the MEK1 kinase activity was conducted with purified enzyme using the LanthaScreen® displacement binding assay (Tracer 236) from Invitrogen (Wisconsin, USA). Evaluation of off-target kinase activity was conducted against the kinase screening panel provided by Invitrogen (Wisconsin, USA).

EGFR = biological target: T1, EGFR (Homo sapiens, UniProt P00533); assay: Off-target kinase selectivity panel (Invitrogen); format: biochemical; settings: read-out: IC50 against EGFR
T1 construct: purchased Invitrogen
Description: as §2

PKCα = biological target: T2, PKCα (Homo sapiens, UniProt P17252); assay: Off-target kinase selectivity panel (Invitrogen); format: biochemical; settings: read-out: IC50 against PKCα
T2 construct: purchased Invitrogen
Description: as §2

AurB = biological target: T3, AurB (Homo sapiens, UniProt Q96GD4); assay: Off-target kinase selectivity panel (Invitrogen); format: biochemical; settings: read-out: IC50 against AurB
T3 construct: purchased Invitrogen
Description: as §2

ERK = assay: Off-target kinase selectivity panel (Invitrogen); format: biochemical; settings: read-out: IC50 against ERK
Description: as §2

MEK1 = MEK1 (Homo sapiens, UniProt Q02750); assay: MEK1 LanthaScreen displacement binding assay (Tracer 236) with purified enzyme; settings: in vitro, read-out: MEK inhibition IC50
PI3K isoforms = assay: PI3K isoform potency; format: biochemical
Description: as §2

pERK1/2 [Thr202/Tyr204] = assay: Cellular pERK expression by immunoblotting in Panc-1 cells; format: cell-based; settings: Panc-1 cells treated for 1 hour, immunoblot
Description: as §1
(§3) Cells were cultured in Dulbecco's Modified Eagle's Medium (DMEM) and 10% FBS, and grown in a 37° C. incubator with 5% CO2. Cells were plated at 3×10^5 cells/well in 6 well plates, and the following day were treated for 1 hr at 37° C. Cells were lysed in 50 mM Tris, 1% NP-40, 150 mM NaCl, 10% glycerol, 1 mM EDTA with 1× protease inhibitor (complete; Roche Applied Science) and phosphatase inhibitors (PhosSTOP, Roche Applied Science). Protein concentration was determined with a Dc Protein Assay Kit (BioRad). Proteins were resolved by SDS-PAGE and transferred to nitrocellulose membranes. […]

pAKT [Ser473] = assay: Cellular pAKT expression by immunoblotting in Panc-1 cells; format: cell-based; settings: Panc-1 cells treated for 1 hour, immunoblot
Description: as §1, §3

MEK1, sequence (Q02750 whole entry, canonical isoform): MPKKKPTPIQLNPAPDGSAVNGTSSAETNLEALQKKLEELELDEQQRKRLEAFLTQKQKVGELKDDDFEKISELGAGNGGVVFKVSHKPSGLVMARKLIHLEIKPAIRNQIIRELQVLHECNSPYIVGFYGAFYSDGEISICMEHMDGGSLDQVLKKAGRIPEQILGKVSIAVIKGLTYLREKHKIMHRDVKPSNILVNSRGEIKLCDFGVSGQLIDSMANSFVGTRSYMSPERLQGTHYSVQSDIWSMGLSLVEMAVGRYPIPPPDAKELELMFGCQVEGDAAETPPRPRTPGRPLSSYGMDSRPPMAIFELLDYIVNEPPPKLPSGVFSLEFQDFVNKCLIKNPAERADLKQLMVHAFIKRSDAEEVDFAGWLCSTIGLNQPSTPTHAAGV
T3 sequence (Q96GD4 whole entry): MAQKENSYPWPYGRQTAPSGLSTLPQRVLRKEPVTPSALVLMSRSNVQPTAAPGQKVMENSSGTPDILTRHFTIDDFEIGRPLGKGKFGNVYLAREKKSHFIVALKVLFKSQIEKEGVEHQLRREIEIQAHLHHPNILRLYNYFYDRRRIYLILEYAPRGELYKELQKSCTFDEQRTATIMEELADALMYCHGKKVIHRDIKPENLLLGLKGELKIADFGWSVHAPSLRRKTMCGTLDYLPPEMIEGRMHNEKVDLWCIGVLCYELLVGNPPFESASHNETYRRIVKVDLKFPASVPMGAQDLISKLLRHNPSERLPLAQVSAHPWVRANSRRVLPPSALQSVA
T1 sequence (P00533 25-1210): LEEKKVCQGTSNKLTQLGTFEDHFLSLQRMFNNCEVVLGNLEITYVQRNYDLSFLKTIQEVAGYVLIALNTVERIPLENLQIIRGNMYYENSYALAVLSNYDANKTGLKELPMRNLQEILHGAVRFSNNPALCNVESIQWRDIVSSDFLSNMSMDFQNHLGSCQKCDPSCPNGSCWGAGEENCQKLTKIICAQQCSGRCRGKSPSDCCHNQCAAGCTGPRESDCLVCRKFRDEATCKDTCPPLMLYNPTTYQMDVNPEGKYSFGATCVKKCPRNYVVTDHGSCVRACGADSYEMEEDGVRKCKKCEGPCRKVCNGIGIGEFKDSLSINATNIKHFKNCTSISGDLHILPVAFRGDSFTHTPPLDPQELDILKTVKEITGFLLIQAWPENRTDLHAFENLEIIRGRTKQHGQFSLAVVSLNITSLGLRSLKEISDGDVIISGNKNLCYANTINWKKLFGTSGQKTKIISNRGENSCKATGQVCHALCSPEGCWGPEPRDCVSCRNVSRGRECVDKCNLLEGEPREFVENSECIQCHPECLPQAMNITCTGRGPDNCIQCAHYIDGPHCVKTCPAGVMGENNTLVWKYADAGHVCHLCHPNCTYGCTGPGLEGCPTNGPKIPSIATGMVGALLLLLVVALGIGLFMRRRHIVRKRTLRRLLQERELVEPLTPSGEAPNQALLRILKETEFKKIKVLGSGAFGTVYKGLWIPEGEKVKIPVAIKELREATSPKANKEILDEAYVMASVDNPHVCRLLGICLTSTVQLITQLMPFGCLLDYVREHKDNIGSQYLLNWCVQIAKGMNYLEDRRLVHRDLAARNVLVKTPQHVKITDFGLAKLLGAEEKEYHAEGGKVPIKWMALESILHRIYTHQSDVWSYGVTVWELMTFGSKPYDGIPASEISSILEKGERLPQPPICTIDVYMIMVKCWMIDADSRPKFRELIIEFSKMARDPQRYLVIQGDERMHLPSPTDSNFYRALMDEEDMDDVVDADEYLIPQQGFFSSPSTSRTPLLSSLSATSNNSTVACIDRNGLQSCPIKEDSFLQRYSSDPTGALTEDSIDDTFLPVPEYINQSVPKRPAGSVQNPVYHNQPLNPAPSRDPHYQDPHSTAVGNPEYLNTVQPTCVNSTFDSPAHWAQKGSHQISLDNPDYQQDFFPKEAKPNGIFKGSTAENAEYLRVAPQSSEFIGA

SMILES: FC(F)c1nc2ccccc2n1-c1nc(N2CCNCC2)nc(N2CCOCC2)n1 [MV3-42B]
IC50 (PI3K; in vitro, purified enzyme): 100 nM

PI3K inhibition IC50 (PI3K; in vitro, purified enzyme, bound printed without a number): >μM
SMILES: O=C(CCCCC[N+](=O)[O-])N1CCN(c2nc(N3CCOCC3)nc(-n3c(C(F)F)nc4ccccc43)n2)CC1 [MV3-44B]

IC50 (PI3K; in vitro, purified enzyme): < 100 nM
improvement in PI3K binding affinity (PI3K; nitro group (MV3-44B) converted to amino group): 10 fold
SMILES: NCCCCCC(=O)N1CCN(c2nc(N3CCOCC3)nc(-n3c(C(F)F)nc4ccccc43)n2)CC1 [MV3-46A]

SMILES: Cc1c(Cc2cccc(N(C)S(=O)(=O)CCCNCCCCCC(=O)N3CCN(c4nc(N5CCOCC5)nc(-n5c(C(F)F)nc6ccccc65)n4)CC3)c2)c(=O)oc2cc(OC(=O)N(C)C)ccc12 [MV3-65A]
IC50 (EGFR): > 10 µM
IC50 (PKCα): > 10 µM
IC50 (AurB): > 10 µM
IC50 (ERK): > 10 µM
IC50 (PI3K; in vitro, purified enzyme): 370 nM
IC50 (MEK1): 501 nM
potency against all of the PI3K isoforms (PI3K isoforms): comparably potent against all of the PI3K isoforms
cellular inhibition of pERK expression (pERK1/2 [Thr202/Tyr204]): cellular inhibition of both pERK and pAKT expression was observed
cellular inhibition of pAKT expression (pAKT [Ser473]): cellular inhibition of both pERK and pAKT expression was observed
